Experiment [1] has as its target T1, Heat shock factor protein 1 (Mus musculus, UniProt P38532).
T1 sequence (P38532 whole entry): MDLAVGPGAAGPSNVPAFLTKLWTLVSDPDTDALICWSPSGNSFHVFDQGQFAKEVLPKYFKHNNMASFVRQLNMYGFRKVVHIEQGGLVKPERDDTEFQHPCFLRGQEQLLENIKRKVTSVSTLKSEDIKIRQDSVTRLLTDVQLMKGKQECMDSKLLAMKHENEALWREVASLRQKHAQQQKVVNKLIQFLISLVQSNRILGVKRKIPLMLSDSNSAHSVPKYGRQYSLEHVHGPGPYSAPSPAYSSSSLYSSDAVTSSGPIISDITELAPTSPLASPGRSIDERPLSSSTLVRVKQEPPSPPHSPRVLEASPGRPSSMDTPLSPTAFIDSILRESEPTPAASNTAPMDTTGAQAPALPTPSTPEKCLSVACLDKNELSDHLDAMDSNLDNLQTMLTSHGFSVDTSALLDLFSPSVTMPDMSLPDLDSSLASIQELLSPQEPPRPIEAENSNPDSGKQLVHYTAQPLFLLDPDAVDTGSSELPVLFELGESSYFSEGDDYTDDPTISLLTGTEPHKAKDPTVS
The experiment can be described thus: enhancement of HSF1-driven luciferase signal – cell-based, NIH3T3, luminescence, dose retest, confirmation (AID 435004).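 Note: stress induced by proteasome inhibitor MG132 added 30 min after compound; luciferase reporter driven by HSF1 response element in NIH3T3 cells; actives raise luminescence as potentiators of the MG132 stress response.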 The format is functional.

The subject of a further experiment is H9c2. The experiment can be described thus: cells. The class given is functional, cell-based. As to conditions: Rattus norvegicus, H9c2, Myocardium.
For a further experiment, the target named is T2, Protein RecA (Mycobacterium tuberculosis, UniProt P9WHJ3).
T2 sequence (P9WHJ3 whole entry): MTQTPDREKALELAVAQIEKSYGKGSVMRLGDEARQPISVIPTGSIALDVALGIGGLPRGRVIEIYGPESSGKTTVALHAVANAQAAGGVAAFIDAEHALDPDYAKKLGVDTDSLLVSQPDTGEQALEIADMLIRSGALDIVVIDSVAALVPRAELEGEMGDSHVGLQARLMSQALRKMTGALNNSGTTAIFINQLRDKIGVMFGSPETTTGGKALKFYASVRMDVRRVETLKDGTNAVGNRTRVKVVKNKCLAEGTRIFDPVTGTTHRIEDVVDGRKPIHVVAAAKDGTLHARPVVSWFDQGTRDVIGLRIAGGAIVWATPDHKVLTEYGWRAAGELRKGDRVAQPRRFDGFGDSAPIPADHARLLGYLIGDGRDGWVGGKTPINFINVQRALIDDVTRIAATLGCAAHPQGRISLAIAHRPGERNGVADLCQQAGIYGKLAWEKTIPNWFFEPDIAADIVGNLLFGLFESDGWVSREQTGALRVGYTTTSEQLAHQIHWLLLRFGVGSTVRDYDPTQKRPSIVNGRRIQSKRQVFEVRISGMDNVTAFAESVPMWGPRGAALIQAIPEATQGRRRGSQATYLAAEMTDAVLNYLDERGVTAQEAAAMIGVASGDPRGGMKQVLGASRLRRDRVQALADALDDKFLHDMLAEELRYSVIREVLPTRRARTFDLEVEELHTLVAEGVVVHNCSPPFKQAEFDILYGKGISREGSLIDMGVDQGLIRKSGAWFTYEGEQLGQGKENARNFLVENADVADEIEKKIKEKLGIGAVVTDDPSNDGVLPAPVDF
As to the kind of experiment: Fluorescence Cell-Free Homogeneous Dose Retest to Identify Inhibitors of RecA-Intein Splicing Activity. [Related pubchem assays (depositor defined):AID2097, AID2223, AID489010, AID492950]. The format is functional.

Experiment [2] is described as follows: viability of PTEN-deleted HCT116 cells – cell-based, HCT116 PTEN knockout, dose response (AID 1047).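 Note: HCT116 colon tumor cells with PTEN knocked out; cells exposed to compound for 60 hours before readout; potency for loss of cell viability measured by luminescence.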 The format is functional.
Experiment [3] can be described thus: viability of HCT116 lacking mutant beta-catenin – cell-based, human colon tumor, dose response (AID 1045).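 Note: HCT116 colon tumor cells with beta catenin knocked out; cells exposed to compound for 60 hours.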 The class given is functional.

This passage reports EC50 and IC50 results from ChEMBL document CHEMBL1201862, “PubChem BioAssay data set” (2004).

Activity calls are given as the source filed them. A value given as a limit tells only on which side of the number the result lay.

As a reminder, the EC50 is the concentration needed to bring the measured effect to its halfway point. One may read the IC50 as the concentration needed to halve the response being measured.
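Throughout, for IC50: confirmatory concentration-response retest of ultra-high-throughput screening hits for modulation of myocardial damage; cell death induced by hydrogen peroxide oxidative stress; compound pretreatment for 60 min then peroxide exposure for 2 h; potency is for protecting the cells against peroxide damage rather than for killing them.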

Regarding `Clc1ccc(CNC2CCN(Cc3ccccc3)CC2)cc1`, in experiment [1], the EC50 was > 260 µM (inactive).
Regarding `C=CCNC(=O)CSc1nnc(C(CC)N(C)C)n1C1CCCCC1` (stereo unspecified), the EC50 in experiment [1] was > 260 µM (inactive).
For `O=C(COc1cccc(NC(=O)c2cccc([N+](=O)[O-])c2)c1)c1ccc(F)cc1`, the IC50 in the experiment with H9c2 was > 79 µM (inactive).
In the case of `ONc1cccnc1-n1nc(C(F)(F)F)cc1C(F)(F)F`, the half-maximal effective concentration (EC50) on Protein RecA is > 380 µM (inconclusive).
As to `O=S(=O)(Nc1cccc2ccccc12)c1cccc2nonc12`, the EC50 in experiment [1] was > 260 µM (inactive).
The same measure, in the same setting: for `CCCc1cc(=O)oc2cc(C)c(CN3CCCC3)c(O)c12` the value was > 260 µM (inactive).
Consider `O=c1cc(-c2ccc([N+](=O)[O-])cc2)c2ccc(O)cc2o1`, for which the IC50 with H9c2 is > 79 µM (inactive).
On the same count and under the same terms, for `Cc1c(C=O)c2ccccn2c1C(=O)c1ccc(Cl)c([N+](=O)[O-])c1` the value was > 79 µM (inactive).
As to `Oc1nc(N2CCN(c3ccccc3)CC2)nc2c1CCC2`, the EC50 in experiment [1] was > 260 µM (inactive). Moreover, the IC50 with H9c2 was 54.4 µM (inactive).
As for `COc1ccc(C2/C=C\CN(S(=O)(=O)/C=C/c3ccccc3)[C@H](Cc3ccccc3)C(=O)N2Cc2ccc(F)cc2)cc1` (stereo partly specified), the EC50 in experiment [1] was > 260 µM (inactive).
With `O=S(=O)(c1ccc(-n2cnnn2)cc1)N1CCNCC1`, the EC50 in experiment [1] was > 260 µM (inactive).
On the same count and under the same terms, for `CCOc1cc(N2CCOCC2)c(OCC)cc1NC(=O)Cc1cccc2ccccc12` the value was > 260 µM (inactive).
`CC(C)(C)c1nn(-c2ccccc2)c2nc(O)c(CNCc3ccco3)cc12`: the EC50 was 7.45 µM (active) in experiment [2] and 9.2 µM (active) in experiment [3]. In the experiment on H9c2, the IC50 is > 79 µM (inactive).
As for `COCCNC(=O)C(c1ccc(C)cc1)N(C(=O)CCC(=O)Nc1ccccn1)c1ccccc1C` (stereo unspecified), in experiment [1], the EC50 is > 260 µM (inactive).
For `O=C(O)c1nn(CC(=O)N2CCN(c3ccccc3)CC2)c(=O)c2ccccc12`, the IC50 with H9c2 is 31 µM (inactive).
With `COc1ccc(NS(=O)(=O)c2cc(NC(=O)c3cnccn3)ccc2N2CCCC2)cc1`, the EC50 in experiment [1] is > 260 µM (inactive).
On to `COC(=O)c1c(C)[nH]c(C(=O)COc2ccc3ccc(=O)oc3c2)c1C`, for which the IC50 with H9c2 is > 79 µM (inactive).
As to `O=C(N/N=C/c1ccccn1)c1cc(C2CC2)nc2ccccc12`, the IC50 with H9c2 is > 79 µM (inactive).
On the same count and under the same terms, for `CCSc1nnc(N)s1` the value was > 79 µM (inactive).
Take `CC(C)C(C(=O)NCc1ccccc1)N(CC1CCCO1)C(=O)CNS(=O)(=O)c1ccccc1` (stereo unspecified): in experiment [1], the EC50 is > 260 µM (inactive).
Take `COc1ccc(S(=O)(=O)N(CCCN2CCCC2=O)Cc2cc3cc(C)c(C)cc3nc2O)cc1`: the IC50 in the experiment on H9c2 was > 79 µM (inactive).
Still for that read-out and setting: in the case of `CC1(NC(=O)CCc2nc(O)c3ccccc3n2)CCS(=O)(=O)C1` (stereo unspecified) it was > 79 µM (inactive).
For `CCOC(=O)c1c(C)[nH]c(C)c1S(=O)(=O)N1CCN(c2cccc(C)c2)C(C)C1` (stereo unspecified), the EC50 in experiment [1] is > 260 µM (inactive).
